Article PMC8126888 (RSC Medicinal Chemistry, 2020)
Read-outs that look alike come from different tables or passages of the source.

Key:
in vitro [1] = settings: human
[2] = test system: Trypanosoma cruzi, Tulahuen CL2, beta-galactosidase strain; assay: microbe, parasite or virus in culture
[3] = test system: primary peritoneal mouse macrophages (PMM); assay: cells; settings: Macrophage
[4] = test system: Leishmania infantum MHOM/MA(BE)/67/ITMAP263 intracellular amastigotes; assay: microbe, parasite or virus in culture; settings: Macrophage, in Mus musculus
in vitro [5] = settings: mouse, microsomes
physchem = settings: HPLC, Ascentis Express RP Amide column
in vitro [6] = settings: human, microsomes
[7] = MRC5, read-out: T. cruzi Tulahuen C4 (LacZ) IC50
[8] = read-out: L. Inf. pIC50, from L. infantum intracellular amastigote IC50 (converted)
[9] = read-out: L. infantum MHOM/MA(BE)/67/ITMAP263 intracellular amastigotes IC50, intracellular amastigotes
[10] = pH 7.4, Microsome Clint Mouse, intrinsic in vitro clearance, liver microsomes
[11] = pH 7.4, elog D, HPLC measured log D, pH 7.4
[12] = pH 7.4, Microsome Clint Human, intrinsic in vitro clearance, liver microsomes
[13] = read-out: PMM pIC50 (converted)
[14] = read-out: L. inf. pIC50, intracellular amastigotes in PMM (converted), geometric mean of a minimum of two experiments ± standard error
[15] = read-out: L. Inf. pIC50 (converted)
[16] = read-out: L. infantum MHOM/MA(BE)/67/ITMAP263 intracellular amastigotes IC50

| Compound | CC50 at 3 days (in vitro [1]) | IC50 [2, 7] | IC50 ([3]; read-out: PMM IC50) | IC50 [4, 8] | IC50 [4, 9] | IC50 [3, 13] | IC50 [4, 14] | IC50 [4, 15] | IC50 [4, 16] | further results |
| --- | --- | --- | --- | --- | --- | --- | --- | --- | --- | --- |
| O=S1(=O)c2cc(F)ccc2OCCN1Cc1ccccc1 [DNDI0003368292] | > 64 µM | 48.9 µM | > 64 µM | > 64 µM | > 64 µM |  |  |  |  |  |
| COc1ccc(S(=O)(=O)N(Cc2ccccc2)Cc2ccccc2)cc1 [Compound 11] |  |  |  |  |  | > 64.6 µM | 45.7 µM |  |  | microsomal CLint at 0.5 μM (in vitro [5]; [10]): 2410 µL/min/mg; chromatographic logD (physchem; [11]): 4.7; microsomal CLint at 0.5 μM (in vitro [6]; [12]): 184 µL/min/mg |
| COCCN(Cc1ccccc1)S(=O)(=O)c1cc(OC)ccc1OC [Compound 39] |  |  |  |  |  | > 64.6 µM | 2.09 µM |  |  | chromatographic logD (physchem; [11]): 3.5; microsomal CLint at 0.5 μM (in vitro [6]; pH 7.4, Microsome Clint,u Human, Table 2, intrinsic in vitro clearance, liver microsomes): 253 µL/min/mg |
| COc1ccc(CN2CCOCC2)cc1S(=O)(=O)N(Cc1ccc(F)cc1)Cc1ccc(F)cc1 [Compound 24] |  |  |  |  |  | > 64.6 µM | 0.525 µM |  |  | microsomal CLint at 0.5 μM (in vitro [5]; [10]): 3200 µL/min/mg; microsomal CLint at 0.5 h, 0.5 µM (in vitro [6]; [12]): 49.4 µL/min/mg |
| COCCNc1ccc(S(=O)(=O)N(CCOC)Cc2ccccc2)cc1 [DNDI0003366102] | 38.1 µM | 34.8 µM | > 64 µM | 38.9 µM | 38.6 µM |  |  |  |  |  |
| COc1ccc(OC)c(S(=O)(=O)N2CCc3ccccc3C2)c1 [DNDI0003363398] | > 55.4 µM | > 55.4 µM | > 55.4 µM |  |  |  |  | > 55.4 µM | > 55.4 µM |  |
| O=C(COc1ccc(Cl)cc1S(=O)(=O)NCc1ccccc1)N1CCOCC1 [DNDI0003363401] | > 55.4 µM | > 55.4 µM | > 55.4 µM |  |  |  |  | > 55.4 µM | > 55.4 µM |  |
| COc1ccc(C(N)=O)cc1S(=O)(=O)N(Cc1ccccc1)Cc1ccccc1 [DNDI0003366135] | 43.2 µM | > 64 µM | > 64 µM | 7.41 µM | 7.39 µM |  |  |  |  | microsomal CLint at 0.5 μM (in vitro [5]; pH 7.4, MLM CLint, mouse liver microsomes): 1670 µL/min/mg; microsomal CLint at 0.5 μM (in vitro [6]; pH 7.4, HLM CLint, human liver microsomes): 108 µL/min/mg |
| COCCN(Cc1ccccc1)S(=O)(=O)c1cc(C(=O)N2CCOCC2)ccc1OC [DNDI0003392126] | > 64 µM |  |  | 43.7 µM |  |  |  |  |  | IC50 ([2]; MRC5, read-out: T. cruzi Tulahuen C4 (LacZ) IC50 (uM)): > 64 µM; IC50 ([3]; read-out: PMM IC50 (uM)): > 64 µM; IC50 ([4]; read-out: L. infantum MHOM/MA(BE)/67/ITMAP263 intracellular amastigotes IC50 (uM), intracellular amastigotes): 44 µM |
| O=C(NC(Cn1ccnc1)c1ccccc1)c1ccc(-n2cnnn2)cc1 (stereo not drawn) [DNDI0003363392] | > 55.4 µM | 9 µM | > 55.4 µM |  |  |  |  | > 49.4 µM | > 49.4 µM |  |
| O=S1(=O)c2ccccc2OCC(Cc2ccccc2)N1Cc1ccccc1 (stereo not drawn) [DNDI0003370081] | > 64 µM | > 64 µM | 45.2 µM | 33.1 µM | 33.5 µM |  |  |  |  | chromatographic logD (physchem; pH 7.4, eLogD, experimental): 5 |
| COc1ccc(OC)c(S(=O)(=O)N(Cc2ccc(F)cc2)Cc2ccc(F)cc2)c1 [Compound 32] |  |  |  |  |  | > 64.6 µM | 0.537 µM |  |  | chromatographic logD (physchem; [11]): 4.7 |
| COc1ccc(Cl)cc1S(=O)(=O)N(CC(=O)N1CCN(C)CC1)Cc1ccccc1 [DNDI0003363387] | > 32 µM | > 32 µM | > 32 µM |  |  |  |  | > 32 µM | > 32 µM |  |
| COc1ccc(C)cc1S(=O)(=O)N(CC(=O)Nc1ccccc1)Cc1ccccc1 [DNDI0003363395] | > 55.4 µM | 19.8 µM | > 55.4 µM |  |  |  |  | > 49.4 µM | > 49.4 µM |  |
| COc1ccc(F)cc1S(=O)(=O)N(Cc1ccccc1)Cc1ccccc1 [Compound 18] |  |  |  |  |  | > 64.6 µM | 1.38 µM |  |  | chromatographic logD (physchem; [11]): 4.7; microsomal CLint at 0.5 μM (in vitro [6]; [12]): 955 µL/min/mg |
| O=S(=O)(c1cc(F)ccc1F)N(Cc1ccccc1)CC(O)c1ccc(F)cc1 (stereo not drawn) [DNDI0003371159] | 18.7 µM | 7.27 µM | > 64 µM | 33.1 µM | 33.1 µM |  |  |  |  |  |
